In patent publication US20230103791A1 (GLAXOSMITHKLINE INTELLECTUAL PROPERTY DEVELOPMENT LIMITED, priority 2019, published 2023):

Target: T1, human Nav1.8 (Homo sapiens, UniProt Q9Y5Y9)
T1 construct: expressed in transfected cells; host or cells: HEK293 (HEK293-Nav1.8)
Assay: Nav1.8 sodium channels assay, QPatch 48 HTX electrophysiology in HEK293-Nav1.8 cells
Type: cell-based
Conditions: at least one set of experimental runs; read-out: average pIC50 value against Nav1.8 (converted)
Procedure, shortened: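 IC50 came from 6-8 point curves of P2 current amplitude, normalized to baseline and a positive reference, and corrected for run-down using vehicle-only wells. Automated patch clamp used HEK293-Nav1.8 (with Navβ1 and TREK1) at pH 7.4 outside and CsF-based solution inside. An 8 s inactivating step at −46 mV preceded the 0 mV test pulse, repeated at 0.07 Hz.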

T1 sequence (Q9Y5Y9 whole entry): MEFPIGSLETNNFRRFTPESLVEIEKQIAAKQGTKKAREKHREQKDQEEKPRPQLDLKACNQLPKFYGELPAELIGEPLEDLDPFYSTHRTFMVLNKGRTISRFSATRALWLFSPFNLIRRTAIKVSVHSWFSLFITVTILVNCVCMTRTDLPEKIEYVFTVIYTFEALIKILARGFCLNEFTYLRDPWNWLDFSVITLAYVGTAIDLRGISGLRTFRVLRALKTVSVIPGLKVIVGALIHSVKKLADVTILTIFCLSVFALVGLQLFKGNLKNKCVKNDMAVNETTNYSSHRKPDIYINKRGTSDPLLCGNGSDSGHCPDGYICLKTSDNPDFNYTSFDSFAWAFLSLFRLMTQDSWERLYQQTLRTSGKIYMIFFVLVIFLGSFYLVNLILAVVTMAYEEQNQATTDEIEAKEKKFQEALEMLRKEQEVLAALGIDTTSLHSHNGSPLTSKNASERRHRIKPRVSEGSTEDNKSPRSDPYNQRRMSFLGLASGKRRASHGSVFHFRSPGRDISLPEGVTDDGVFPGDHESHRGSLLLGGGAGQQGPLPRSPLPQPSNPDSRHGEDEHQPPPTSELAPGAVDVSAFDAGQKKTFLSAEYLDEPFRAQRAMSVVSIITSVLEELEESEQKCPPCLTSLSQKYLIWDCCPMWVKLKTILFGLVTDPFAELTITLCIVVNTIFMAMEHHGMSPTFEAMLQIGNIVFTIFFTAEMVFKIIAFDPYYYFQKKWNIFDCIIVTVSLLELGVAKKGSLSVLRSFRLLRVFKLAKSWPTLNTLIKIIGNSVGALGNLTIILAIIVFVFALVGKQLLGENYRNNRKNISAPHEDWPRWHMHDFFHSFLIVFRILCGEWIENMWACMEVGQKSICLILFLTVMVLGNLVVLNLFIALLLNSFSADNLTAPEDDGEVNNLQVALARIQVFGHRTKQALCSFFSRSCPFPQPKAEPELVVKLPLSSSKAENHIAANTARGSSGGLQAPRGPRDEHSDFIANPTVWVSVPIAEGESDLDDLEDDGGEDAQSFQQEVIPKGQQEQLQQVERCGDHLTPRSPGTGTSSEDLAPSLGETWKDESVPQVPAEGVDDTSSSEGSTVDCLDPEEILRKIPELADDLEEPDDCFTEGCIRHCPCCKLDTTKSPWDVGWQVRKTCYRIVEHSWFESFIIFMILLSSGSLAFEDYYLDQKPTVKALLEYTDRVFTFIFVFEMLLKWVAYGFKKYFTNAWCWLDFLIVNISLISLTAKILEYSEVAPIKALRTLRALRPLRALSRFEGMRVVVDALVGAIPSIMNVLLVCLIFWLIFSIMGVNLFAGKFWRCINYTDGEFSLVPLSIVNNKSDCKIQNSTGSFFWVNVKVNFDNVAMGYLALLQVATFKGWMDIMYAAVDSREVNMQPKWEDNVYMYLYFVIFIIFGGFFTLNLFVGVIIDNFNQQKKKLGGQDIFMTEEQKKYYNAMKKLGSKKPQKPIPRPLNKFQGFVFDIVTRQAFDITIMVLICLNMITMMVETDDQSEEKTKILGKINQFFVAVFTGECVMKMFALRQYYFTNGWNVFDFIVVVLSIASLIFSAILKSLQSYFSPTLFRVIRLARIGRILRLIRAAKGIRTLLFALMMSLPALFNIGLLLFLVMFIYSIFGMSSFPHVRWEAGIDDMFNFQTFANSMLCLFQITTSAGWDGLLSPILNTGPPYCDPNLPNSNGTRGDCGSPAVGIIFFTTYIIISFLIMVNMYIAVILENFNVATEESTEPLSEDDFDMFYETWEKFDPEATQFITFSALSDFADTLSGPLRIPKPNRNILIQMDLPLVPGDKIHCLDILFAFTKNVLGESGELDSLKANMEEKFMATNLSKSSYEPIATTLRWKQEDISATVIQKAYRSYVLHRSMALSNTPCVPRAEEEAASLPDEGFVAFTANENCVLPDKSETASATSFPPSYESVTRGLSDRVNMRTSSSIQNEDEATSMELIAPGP
T1 sequence (Q07699 19-218 partner): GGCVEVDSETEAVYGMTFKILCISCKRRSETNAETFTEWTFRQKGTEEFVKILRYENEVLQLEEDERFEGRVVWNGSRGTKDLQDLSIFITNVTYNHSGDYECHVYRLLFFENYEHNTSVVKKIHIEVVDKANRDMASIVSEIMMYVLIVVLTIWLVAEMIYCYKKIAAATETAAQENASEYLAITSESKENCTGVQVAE

Compound | IC50 [nM]
Cc1[nH]c(=O)ccc1N1CN(c2ccc(F)cc2C(C)C)c2ccc(F)cc2C1=O [Example 180, 6-fluoro-1-(4-fluoro-2-isopropylphenyl)-3-(2-methyl-6-oxo-1,6-dihydropyridin-3-yl)-2,3-dihydroquinazolin-4(1H)-one] | ≤ 100
Cc1[nH]c(=O)ccc1N1CN(c2ccc(F)cc2C2CC2)c2ccccc2C1=O [Example 181, 1-(2-cyclopropyl-4-fluorophenyl)-3-(2-methyl-6-oxo-1,6-dihydropyridin-3-yl)-2,3-dihydroquinazolin-4(1H)-one] | 126 to 631
Cc1[nH]c(=O)ccc1N1CN(c2ccc(F)cc2C2CC2)c2cc(C(F)(F)F)ccc2C1=O [Example 182, 1-(2-cyclopropyl-4-fluorophenyl)-3-(2-methyl-6-oxo-1,6-dihydropyridin-3-yl)-7-(trifluoromethyl)-2,3-dihydroquinazolin-4(1H)-one] | ≤ 100
Cc1cc(F)ccc1N1CN(c2ccc(=O)[nH]c2C)C(=O)c2c(F)cccc21 [Example 183, 5-fluoro-1-(4-fluoro-2-methylphenyl)-3-(2-methyl-6-oxo-1,6-dihydropyridin-3-yl)-2,3-dihydroquinazolin-4(1H)-one] | 126 to 631
CCc1cc(F)ccc1N1CN(c2ccc(=O)[nH]c2C)C(=O)c2ccc(C(F)(F)F)cc21 [Example 184, 1-(2-ethyl-4-fluorophenyl)-3-(2-methyl-6-oxo-1,6-dihydropyridin-3-yl)-7-(trifluoromethyl)-2,3-dihydroquinazolin-4(1H)-one] | ≤ 100
Cc1cc(F)ccc1N1CN(c2ccc(=O)[nH]c2C)C(=O)c2ccc(OC(F)F)cc21 [Example 185, 7-(difluoromethoxy)-1-(4-fluoro-2-methylphenyl)-3-(2-methyl-6-oxo-1,6-dihydropyridin-3-yl)-2,3-dihydroquinazolin-4(1H)-one] | ≤ 100
Cc1cc(F)ccc1-n1c(=O)n(-c2ccc(=O)[nH]c2)c(=O)c2ccc(C(F)(F)F)cc21 [Example 186, 1-(4-fluoro-2-methylphenyl)-3-(6-oxo-1,6-dihydropyridin-3-yl)-7-(trifluoromethyl) quinazoline-2,4(1H,3H)-dione] | 794 to 7940
Cc1cc(F)ccc1N1CN(c2ccc(=O)[nH]c2C)C(=O)c2ccc(C3CC3)cc21 [Example 187, 7-cyclopropyl-1-(4-fluoro-2-methylphenyl)-3-(2-methyl-6-oxo-1,6-dihydropyridin-3-yl)-2,3-dihydroquinazolin-4(1H)-one] | ≤ 100
Cc1cc(F)ccc1N1CN(c2ccc(=O)[nH]c2C)C(=O)c2cc(OC(F)(F)F)ccc21 [Example 188, 1-(4-fluoro-2-methylphenyl)-3-(2-methyl-6-oxo-1,6-dihydropyridin-3-yl)-6-(trifluoromethoxy)-2,3-dihydroquinazolin-4(1H)-one] | ≤ 100
Cc1cc(OC(F)F)ccc1N1CN(c2ccc(=O)[nH]c2C)C(=O)c2cc(C(F)(F)F)ccc21 [Example 189, 1-(4-(difluoromethoxy)-2-methylphenyl)-3-(2-methyl-6-oxo-1,6-dihydropyridin-3-yl)-6-(trifluoromethyl)-2,3-dihydroquinazolin-4(1H)-one] | ≤ 100
CCc1[nH]c(=O)ccc1N1CN(c2ccc(F)cc2C)c2cc(OC(F)(F)F)ccc2C1=O [Example 190, 3-(2-ethyl-6-oxo-1,6-dihydropyridin-3-yl)-1-(4-fluoro-2-methylphenyl)-7-(trifluoromethoxy)-2,3-dihydroquinazolin-4(1H)-one] | ≤ 100
CCc1cc(F)ccc1N1CN(c2ccc(=O)[nH]c2C)C(=O)c2cc(Cl)c(F)cc21 [Example 191, 6-chloro-1-(2-ethyl-4-fluorophenyl)-7-fluoro-3-(2-methyl-6-oxo-1,6-dihydropyridin-3-yl)-2,3-dihydroquinazolin-4(1H)-one] | ≤ 100
CCc1cc(F)ccc1N1CN(c2ccc(=O)[nH]c2C)C(=O)c2cc(Cl)c(C#N)cc21 [Example 192, 6-chloro-1-(2-ethyl-4-fluorophenyl)-3-(2-methyl-6-oxo-1,6-dihydropyridin-3-yl)-4-oxo-1,2,3,4-tetra-hydroquinazoline-7-carbonitrile] | ≤ 100
Cc1cc(F)ccc1N1CN(c2ccc(=O)[nH]c2C)C(=O)c2c1cc(F)c(Cl)c2F [Example 193, 6-chloro-5,7-difluoro-1-(4-fluoro-2-methylphenyl)-3-(2-methyl-6-oxo-1,6-dihydropyridin-3-yl)-2,3-dihydroquinazolin-4(1H)-one] | ≤ 100
Cc1cc(F)ccc1N1CN(c2ccc(=O)[nH]c2C)C(=O)c2c1cc(C#N)c(Cl)c2F [Example 194, 6-chloro-5-fluoro-1-(4-fluoro-2-methylphenyl)-3-(2-methyl-6-oxo-1,6-dihydropyridin-3-yl)-4-oxo-1,2,3,4-tetra-hydroquinazoline-7-carbonitrile] | ≤ 100

Other lines, results leading:

IC50 [nM] | Compound
794 to 7940 | Cc1cc(C(F)(F)F)ccc1N1CN(c2ccc(=O)[nH]c2C)C(=O)c2cc(C(F)(F)F)cnc21 [Example 195, 1-(2-methyl-4-(trifluoromethyl)phenyl)-3-(2-methyl-6-oxo-1,6-dihydropyridin-3-yl)-6-(trifluoromethyl)-2,3-dihydropyrido[2,3-d]pyrimidin-4(1H)-one]
126 to 631 | Cc1cc(Cl)ccc1N1CN(c2ccc(=O)[nH]c2C)C(=O)c2cc(C(F)(F)F)cnc21 [Example 196, 1-(4-chloro-2-methylphenyl)-3-(2-methyl-6-oxo-1,6-dihydropyridin-3-yl)-6-(trifluoromethyl)-2,3-dihydropyrido[2,3-d]pyrimidin-4(1H)-one]
794 to 7940 | Cc1cc(F)ccc1N1CN(c2ccc(=O)[nH]c2C)C(=O)c2ccc(C(F)(F)CO)cc21 [Example 197, 7-(1,1-difluoro-2-hydroxyethyl)-1-(4-fluoro-2-methylphenyl)-3-(2-methyl-6-oxo-1,6-dihydropyridin-3-yl)-2,3-dihydroquinazolin-4(1H)-one]
≤ 100 | Cc1cc(F)ccc1N1CN(c2ccc(=O)[nH]c2C(C)C)C(=O)c2ccc(C(F)(F)F)cc21 [Example 198, 1-(4-fluoro-2-methylphenyl)-3-(2-isopropyl-6-oxo-1,6-dihydropyridin-3-yl)-7-(trifluoromethyl)-2,3-dihydroquinazolin-4(1H)-one]
126 to 631 | Cc1cc(F)ccc1N1CN(c2ccc(=O)[nH]c2NCCO)C(=O)c2ccc(C(F)(F)F)cc21 [Example 199, 1-(4-fluoro-2-methylphenyl)-3-(2-((2-hydroxy-ethyl)amino)-6-oxo-1,6-dihydropyridin-3-yl)-7-(trifluoromethyl)-2,3-dihydroquinazolin-4(1H)-one]
≤ 100 | Cc1[nH]c(=O)ccc1N1CN(c2ccc(F)cc2N(C)C)c2ccc(Cl)cc2C1=O [Example 200, 6-chloro-1-(2-(dimethylamino)-4-fluorophenyl)-3-(2-methyl-6-oxo-1,6-dihydropyridin-3-yl)-2,3-dihydroquinazolin-4(1H)-one]
≤ 100 | CNc1cc(F)ccc1N1CN(c2ccc(=O)[nH]c2C)C(=O)c2cc(Cl)ccc21 [Example 201, 6-chloro-1-(4-fluoro-2-(methylamino)phenyl)-3-(2-methyl-6-oxo-1,6-dihydropyridin-3-yl)-2,3-dihydroquinazolin-4(1H)-one]
794 to 7940 | Cc1cc(C(F)(F)CO)ccc1N1CN(c2ccc(=O)[nH]c2C)C(=O)c2ccc(C(F)(F)F)cc21 [Example 202, 1-(4-(1,1-difluoro-2-hydroxyethyl)-2-methylphenyl)-3-(2-methyl-6-oxo-1,6-dihydropyridin-3-yl)-7-(trifluoromethyl)-2,3-dihydroquinazolin-4(1H)-one]
≤ 100 | Cc1ccc(N2CN(c3ccc(=O)[nH]c3C)C(=O)c3ccc(C(F)(F)F)cc32)c(C)c1 [Example 203, 1-(2,4-dimethylphenyl)-3-(2-methyl-6-oxo-1,6-dihydropyridin-3-yl)-7-(trifluoromethyl)-2,3-dihydroquinazolin-4(1H)-one]
794 to 7940 | Cc1cc(F)ccc1N1CN(c2ccc[nH]c2=O)C(=O)c2ccc(C(F)(F)F)cc21 [Example 204, 1-(4-fluoro-2-methylphenyl)-3-(2-oxo-1,2-dihydropyridin-3-yl)-7-(trifluoromethyl)-2,3-dihydroquinazolin-4(1H)-one]
≤ 100 | Cc1cc(F)ccc1N1CN(c2cnc(=O)[nH]c2C)C(=O)c2ccc(OC(F)(F)F)cc21 [Example 205, 1-(4-fluoro-2-methylphenyl)-3-(6-methyl-2-oxo-1,2-dihydropyrimidin-5-yl)-7-(trifluoromethoxy)-2,3-dihydroquinazolin-4(1H)-one]
126 to 631 | Cc1ccc2c(n1)N(c1ccc(F)cc1C)CN(c1ccc(=O)[nH]c1C)C2=O [Example 206, 1-(4-fluoro-2-methylphenyl)-7-methyl-3-(2-methyl-6-oxo-1,6-dihydropyridin-3-yl)-2,3-dihydropyrido[2,3-d]pyrimidin-4(1H)-one]
≤ 100 | CCc1cc(F)ccc1N1CN(c2ccc(=O)[nH]c2C)C(=O)c2cc(Cl)c(C#N)nc21 [Example 207, 6-chloro-1-(2-ethyl-4-fluorophenyl)-3-(2-methyl-6-oxo-1,6-dihydropyridin-3-yl)-4-oxo-1,2,3,4-tetrahydropyrido [2,3-d]pyrimidine-7-carbonitrile]
126 to 631 | Cc1cc(F)ccc1N1CN(c2ccc(=O)n(C)c2C)C(=O)c2cc(C(F)(F)F)ccc21 [Example 209, 3-(1,2-dimethyl-6-oxo-1,6-dihydropyridin-3-yl)-1-(4-fluoro-2-methylphenyl)-6-(trifluoromethyl)-2,3-dihydroquinazolin-4(1H)-one]
126 to 631 | Cc1cc(F)ccc1N1CN(c2ccc(=O)[nH]c2Cl)C(=O)c2cc(C(F)(F)F)ccc21 [Example 210, 3-(2-chloro-6-oxo-1,6-dihydropyridin-3-yl)-1-(4-fluoro-2-methylphenyl)-6-(trifluoromethyl)-2,3-dihydroquinazolin-4(1H)-one]
